Assay results from patent EP2078717A1, “6-Pyrimidinyl-pyrimid-2-one derivative” (sanofi-aventis, priority 2008, dated 2009).
Read-outs that look alike come from different tables or passages of the source.

Columns and labels:
tau phosphorylation = experiment: Inhibitory activity on tau phosphorylation in vivo (pS396 Western blot of cortex); set-up: species or system male CD-1 mice; conditions: 10 mg/kg p.o., cortex removed after 1 hour, pS396 antibody; ** means statistically significant
Method: Experiment 7 : Inhibitory activity on tau phosphorylation in vivo
Test compound was administrated to male CD-1 mice of 5-6 weeks weighing 25-35 g (Charles River Japan, inc.) at 10 mg/kg p.o. (0.5% polyethylene glycol sorbitan monolaurate 80 (Tween80)/water suspension) and after 1 hour, mice were decapitated and cortex was promptly removed, followed by being frozen in liquid nitrogen. […] Protein concentrations were determined using DC protein assay kit (BIO-RAD). Supernatants were diluted with sample buffer (62.5 mM Tris-HCl, 25% glycerol, 2% SDS, 0.01% Bromophenol Blue, pH 6.8) to adjust the protein concentrations around […] and then boiled for 5 minutes. Samples (10 µ g) were separated on 10% sodium dodecyl sulfate-polyacrylamide electrophoresis (SDS-PAGE) mini slab gels and transferred onto polyvinylidene difluoride (PVDF) membranes. Membranes were incubated with phosphate buffered saline (PBS) containing 5% non-fat milk for 1 hour at room temperature and then probed with pS396 anti-body (BIOSOURCE) over night at 4 °C. Anti-rabbit IgG horseradish peroxidase (HRP) conjugated antibody (Promega) was used as secondary antibody. Membranes were visualized by Enhanced ChemiLuminescence (ECL) kit (Amersham Bioscience) and detected by LAS 1000 (Fuji Photo Film).

scopolamine-treated mice = experiment: Object recognition (OR) test of episodic memory in scopolamine-treated mice; conditions: for recognition index (RI): scopolamine 1 mg/kg 30 minutes before acquisition, 3 hours inter-trial interval
normal mice = experiment: Object recognition (OR) test of episodic memory in normal mice; assay type: in vivo; conditions: for minimal effective dose: Mus musculus, po

Q: Which “in vivo 10 mg/kg, % phosphorylation against vehicle” value (shortened to “in vivo 10 mg/kg, % phosphorylation”) (tau phosphorylation) does the source give for Cc1nc(-c2ccc([C@H]3CN(c4nc(-c5ccncn5)cc(=O)n4C)CCO3)cc2)no1 [Compound of the present invention] here?
A: Its value is 58.14** %.

Q: What about the minimal effective dose (scopolamine-treated mice; Mus musculus, po, read-out: Minimal Effective Dose, prevention of episodic memory deficits) of the same compound?
A: The minimal effective dose was 10 mg/kg.

Q: What about the “recognition index (RI)” value (scopolamine-treated mice; 10 mg/kg p.o. 1 hour before acquisition) of the same compound?
A: The value was 52.7%.

Q: What about the “recognition index (RI)” value (scopolamine-treated mice; 30 mg/kg p.o. 1 hour before acquisition) of the same compound?
A: Its value is 60.4%.

Q: And the “effect on episodic memory deficits induced by scopolamine” value (scopolamine-treated mice; single oral administration 3mg/kg)?
A: The value was “ineffective”.

Q: And the “effect on episodic memory deficits induced by scopolamine” value (scopolamine-treated mice; single oral administration 10 mg/kg, 30 minutes before scopolamine, 1 hour before acquisition)?
A: The value was “totally reversed”.

Q: What about the “recognition index (RI)” value (normal mice; 1 mg/kg p.o. 1 hour before acquisition and retention sessions, 24 hours inter-trial interval) of the same compound?
A: Its value is 50.3%.

Q: What about the “recognition index (RI)” value (normal mice; 3 mg/kg p.o. 1 hour before acquisition and retention sessions, 24 hours inter-trial interval) of the same compound?
A: The value was 52.6%.

Q: What about the “recognition index (RI)” value (normal mice; 3 mg/kg p.o. once immediately after the acquisition phase, 24 hours inter-trial interval) of the same compound?
A: Its value is 54.6%.

Q: What about the “recognition index (RI)” value (normal mice; 10 mg/kg p.o. 1 hour before acquisition and retention sessions, 24 hours inter-trial interval) of the same compound?
A: The value was 60.4%.

Q: And the “recognition index (RI)” value (normal mice; 10 mg/kg p.o. once immediately after the acquisition phase, 24 hours inter-trial interval)?
A: The value was 58.6%.

Q: What about the “recognition index (RI)” value (normal mice; 30 mg/kg p.o. 1 hour before acquisition and retention sessions, 24 hours inter-trial interval) of the same compound?
A: Its value is 62.9%.

Q: What about the “recognition index (RI)” value (normal mice; 30 mg/kg p.o. once immediately after the acquisition phase, 24 hours inter-trial interval) of the same compound?
A: Its value is 60.0%.

Q: What about the minimal effective dose (normal mice; normal mice, summary, read-out: minimal effective dose, increases episodic memory and consolidates episodic memory trace) of the same compound?
A: Its minimal effective dose is 10 mg/kg.

Q: What about the minimal effective dose (normal mice; p.o. 1 hour before acquisition and retention sessions, 24 hours inter-trial interval, read-out: dose from which memory performance increased significantly) of the same compound?
A: The minimal effective dose was ≥ 10 mg/kg.

Q: What about the minimal effective dose (normal mice; p.o. once immediately after the acquisition phase, read-out: minimal effective dose, consolidation of episodic memory) of the same compound?
A: The minimal effective dose was 10 mg/kg.

Q: And the “recognition index (RI)” value (normal mice; normal mice of the scopolamine experiment, 10 mg/kg p.o. 1 hour before acquisition, 3 hours inter-trial interval)?
A: Its value is 61.7%.

Q: And the “recognition index (RI)” value (normal mice; normal mice of the scopolamine experiment, 30 mg/kg p.o. 1 hour before acquisition, 3 hours inter-trial interval)?
A: Its value is 59.7%.

Q: How did the “in vivo 10 mg/kg, % phosphorylation” value (tau phosphorylation) turn out when Cn1c(N2CCOC(c3nc(-c4ccccc4)no3)C2)nc(-c2ccncn2)cc1=O (centres unmarked) [compound 1] was run?
A: Its value is 92.12%.

Q: With Cn1c(N2CCOC(c3noc(-c4ccccc4)n3)C2)nc(-c2ccncn2)cc1=O (centres unmarked) [compound 2, 1-Methyl-2-[2-(5-phenyl-[1,2,4]oxadiazol-3-yl)-morpholin-4-yl]-1H-[4,4']bipyrimidinyl-6-one] as the compound, how does the “in vivo 10 mg/kg, % phosphorylation” value (tau phosphorylation) read?
A: The value was 79.21%.

Q: With Cn1c(N2CCOC(c3ccc(-c4ccoc4)cc3)C2)nc(-c2ccncn2)cc1=O (centres unmarked) [compound 3, 2-[2-(4-Furan-3-yl-phenyl)-morpholin-4-yl]-1-methyl-1H-[4,4']bipyrimidinyl-6-one] as the compound, how does the “in vivo 10 mg/kg, % phosphorylation” value (tau phosphorylation) read?
A: Its value is 71.44%.

Q: With Cn1ccnc1-c1ccc(C2CN(c3nc(-c4ccncn4)cc(=O)n3C)CCO2)cc1 (centres unmarked) [compound 4, 1-Methyl-2-{2-[4-(1-methyl-1H-imidazol-2-yl)-phenyl]-morpholin-4-yl}-1H-[4,4']bipyrimidinyl-6-one] as the compound, how does the “in vivo 10 mg/kg, % phosphorylation” value (tau phosphorylation) read?
A: Its value is 71.21%.

Q: Which “in vivo 10 mg/kg, % phosphorylation” value (tau phosphorylation) does the source give for Cn1c(N2CCOC(c3ccc(-n4cccn4)cc3)C2)nc(-c2ccncn2)cc1=O (centres unmarked) [compound 5, 1-Methyl-2-[2-(4-pyrazol-1-yl-phenyl)-morpholin-4-yl]-1H-[4,4']bipyrimidinyl-6-one] here?
A: The value was 53.35** %.
